Test results reported in ChEMBL document CHEMBL4308875, “Synthesis, antituberculosis studies and biological evaluation of new quinoline derivatives carrying 1,2,4-oxadiazole moiety” (Bioorg Med Chem Lett, 2019).
≈ marks a conversion by molar mass, not a printed value.

How the values were obtained:
[1] = tested on: Mycobacterium tuberculosis; assay: Antitubercular activity against Mycobacterium tuberculosis H37Rv after 15 days by turbidometric method; assay type: functional; details: 360 h
[2] = MRTlast in BALB/c mouse at 30 mg/kg, po; assay type: ADME, organism-based; details: in vivo
[3] = Half life in BALB/c mouse at 30 mg/kg, po; assay type: ADME, organism-based; details: in vivo
Escherichia coli = assay: Antibacterial activity against Escherichia coli ATCC 25922 after 15 days by turbidometric method; assay type: functional; details: ATCC 25922, 360 h
[4] = Metabolic stability in human liver microsomes assessed as compound remaining at 1 uM after 120 mins in presence of G-6-P, G-6-PDH, MgCl2 and NADP+ by LC-MS/MS analysis (reference value: 100%)
Staphylococcus aureus = assay: Antibacterial activity against Staphylococcus aureus ATCC 33591 after 15 days by turbidometric method; assay type: functional; details: ATCC 33591, 360 h
Acinetobacter baumannii = assay: Antibacterial activity against Acinetobacter baumannii ATCC 19606 after 15 days by turbidometric method; assay type: functional; details: ATCC 19606 = CIP 70.34 = JCM 6841
Enterococcus faecium = assay: Antibacterial activity against Enterococcus faecium ATCC 51559 after 15 days by turbidometric method; assay type: functional; details: ATCC 51559, 360 h
[5] = Tmax in BALB/c mouse at 30 mg/kg, po; assay type: ADME, organism-based; details: in vivo
[6] = tested on: Mycobacterium tuberculosis; assay: Bacteriostatic activity against Mycobacterium tuberculosis H37Rv assessed as colony forming units at 0.002 to 64 ug/ml measured day 3 post dose by time kill assay (reference value: 0 log10CFU/ml); assay type: functional
[7] = Metabolic stability in human liver microsomes assessed as compound remaining at 1 uM after 30 mins in presence of G-6-P, G-6-PDH, MgCl2 and NADP+ by LC-MS/MS analysis (reference value: 100%)
HepG2 = assay: Cytotoxicity against human HepG2 cells after 24 hrs by MTT assay; assay type: cell-based; details: HepG2, 24 h
[8] = Extrapolated AUC in BALB/c mouse at 30 mg/kg, po; assay type: ADME, organism-based; details: in vivo
[9] = tested on: Mycobacterium tuberculosis; assay: Bacteriostatic activity against Mycobacterium tuberculosis H37Rv assessed as colony forming units at 0.002 to 64 ug/ml measured day 21 post dose by time kill assay (reference value: 0 log10CFU/ml); assay type: functional
Klebsiella pneumoniae = assay: Antibacterial activity against Klebsiella pneumoniae ATCC 700603 after 15 days by turbidometric method; assay type: functional; details: Klebsiella pneumoniae, 700603, 360 h
[10] = AUC (infinity) in BALB/c mouse at 30 mg/kg, po; assay type: ADME, organism-based; parameters: dose 30 mg/kg, time infinity, route oral; details: in vivo
[11] = tested on: Mycobacterium tuberculosis; assay: Bacteriostatic activity against Mycobacterium tuberculosis H37Rv assessed as colony forming units at 0.002 to 64 ug/ml measured day 14 post dose by time kill assay (reference value: 0 log10CFU/ml); assay type: functional
[12] = Metabolic stability in human liver microsomes assessed as compound remaining at 1 uM after 120 mins by LC-MS/MS analysis (reference value: 100%)
[13] = Cmax in BALB/c mouse at 30 mg/kg, po; assay type: ADME, organism-based; parameters: dose 30 mg/kg, route oral; details: in vivo
[14] = AUClast in BALB/c mouse at 30 mg/kg, po; assay type: ADME, organism-based; parameters: dose 30 mg/kg, route oral, time 0 - last; details: in vivo
[15] = Metabolic stability in human liver microsomes assessed as compound remaining at 1 uM after 60 mins in presence of G-6-P, G-6-PDH, MgCl2 and NADP+ by LC-MS/MS analysis (reference value: 100%)
[16] = Metabolic stability in human liver microsomes assessed as compound remaining at 1 uM after 15 mins in presence of G-6-P, G-6-PDH, MgCl2 and NADP+ by LC-MS/MS analysis (reference value: 100%)
Pseudomonas aeruginosa = assay: Antibacterial activity against Pseudomonas aeruginosa ATCC 15442 after 15 days by turbidometric method; assay type: functional; details: ATCC 15442, 360 h
[17] = tested on: Mycobacterium tuberculosis; assay: Bacteriostatic activity against Mycobacterium tuberculosis H37Rv assessed as colony forming units at 0.002 to 64 ug/ml measured day 7 post dose by time kill assay (reference value: 0 log10CFU/ml); assay type: functional

N#Cc1cccc(-c2nc(CN3CCN(c4ccnc5cc(Cl)ccc45)CC3)no2)c1
MIC [1]: 64 µg/mL (≈ 149 µM)

CC(C)c1ccc(-c2nc(CN3CCN(c4ccnc5cc(-c6cc(F)cc(F)c6)ccc45)CC3)no2)cc1
MIC [1]: 32 µg/mL (≈ 60.9 µM)

CC(C)c1ccc(-c2nc(CN3CCN(c4ccnc5cc(Cl)ccc45)CC3)no2)cc1
MRT last [2]: 1.5 h
half-life [3]: 1.63 h
MIC (Escherichia coli): > 32 µg/mL
remaining at 2 h, 1 µM [4]: 39.7%
MIC (Staphylococcus aureus): > 32 µg/mL
MIC (Acinetobacter baumannii): > 32 µg/mL
MIC (Enterococcus faecium): > 32 µg/mL
Tmax [5]: 1 h
Emax [6]: 0.2 log10CFU/ml
remaining at 0.5 h, 1 µM [7]: 67.2%
IC50 (HepG2): > 100 µM
MIC [1]: 0.5 µg/mL (≈ 1.12 µM)
%AUCextra [8]: 1.17%
Emax [9]: 0.9 log10CFU/ml
MIC (Klebsiella pneumoniae): > 32 µg/mL
AUC(0-inf) [10]: 5330 ng·h/mL
Emax [11]: 0.9 log10CFU/ml
remaining at 2 h, 1 µM [12]: 89.2%
Cmax [13]: 2500 ng/mL
AUC(0-t) [14]: 5270 ng·h/mL
remaining at 1 h, 1 µM [15]: 55.3%
remaining at 0.25 h, 1 µM [16]: 82%
MIC (Pseudomonas aeruginosa): > 32 µg/mL
Emax [17]: 1.1 log10CFU/ml

Cc1cccc(-c2nc(CN3CCN(c4ccnc5cc(-c6ccncc6)ccc45)CC3)no2)c1C
MIC [1]: 2 µg/mL (≈ 4.2 µM)

N#Cc1cccc(-c2nc(CN3CCN(c4ccnc5cc(-c6cc(F)cc(F)c6)ccc45)CC3)no2)c1
MIC [1]: > 256 µg/mL

CC(C)c1ccc(-c2nc(CN3CCN(c4ccnc5cc(-c6ccncc6)ccc45)CC3)no2)cc1
MIC [1]: 2 µg/mL (≈ 4.08 µM)

Cc1cccc(-c2nc(CN3CCN(c4ccnc5cc(-c6cccnc6)ccc45)CC3)no2)c1C
MRT last [2]: 1.34 h
half-life [3]: 0.94 h
MIC (Escherichia coli): > 32 µg/mL
remaining at 2 h, 1 µM [4]: 18.1%
MIC (Staphylococcus aureus): > 32 µg/mL
MIC (Acinetobacter baumannii): > 32 µg/mL
MIC (Enterococcus faecium): > 32 µg/mL
Tmax [5]: 0.5 h
remaining at 0.5 h, 1 µM [7]: 47.3%
IC50 (HepG2): > 100 µM
MIC [1]: 0.25 µg/mL (≈ 0.525 µM)
%AUCextra [8]: 0.22%
MIC (Klebsiella pneumoniae): > 32 µg/mL
AUC(0-inf) [10]: 8310 ng·h/mL
remaining at 2 h, 1 µM [12]: 78%
Cmax [13]: 6410 ng/mL
AUC(0-t) [14]: 8290 ng·h/mL
remaining at 1 h, 1 µM [15]: 31.7%
remaining at 0.25 h, 1 µM [16]: 65.1%
MIC (Pseudomonas aeruginosa): > 32 µg/mL

COc1cc(OC)cc(-c2nc(CN3CCN(c4ccnc5cc(Cl)ccc45)CC3)no2)c1
MIC [1]: 32 µg/mL (≈ 68.7 µM)

c1cncc(-c2ccc3c(N4CCN(Cc5noc(C6CCCC6)n5)CC4)ccnc3c2)c1
MRT last [2]: 1.31 h
half-life [3]: 0.75 h
MIC (Escherichia coli): 256 µg/mL (≈ 581 µM)
remaining at 2 h, 1 µM [4]: 21.9%
MIC (Staphylococcus aureus): 512 µg/mL (≈ 1160 µM)
MIC (Acinetobacter baumannii): 512 µg/mL (≈ 1160 µM)
MIC (Enterococcus faecium): 64 µg/mL (≈ 145 µM)
Tmax [5]: 0.5 h
remaining at 0.5 h, 1 µM [7]: 54.8%
IC50 (HepG2): > 50 µM
MIC [1]: 0.25 µg/mL (≈ 0.567 µM)
%AUCextra [8]: 0.71%
MIC (Klebsiella pneumoniae): 256 µg/mL (≈ 581 µM)
AUC(0-inf) [10]: 20200 ng·h/mL
remaining at 2 h, 1 µM [12]: 97.8%
Cmax [13]: 9600 ng/mL
AUC(0-t) [14]: 20000 ng·h/mL
remaining at 1 h, 1 µM [15]: 38%
remaining at 0.25 h, 1 µM [16]: 60.8%
MIC (Pseudomonas aeruginosa): 512 µg/mL (≈ 1160 µM)

Clc1ccc2c(N3CCN(Cc4noc(C5CCCC5)n4)CC3)ccnc2c1
MIC [1]: 32 µg/mL (≈ 80.4 µM)

COc1cc(OC)cc(-c2nc(CN3CCN(c4ccnc5cc(-c6ccncc6)ccc45)CC3)no2)c1
MIC [1]: > 128 µg/mL

CC(C)c1ccc(-c2nc(CN3CCN(c4ccnc5cc(-c6cccnc6)ccc45)CC3)no2)cc1
MRT last [2]: 1.38 h
half-life [3]: 1.05 h
MIC (Escherichia coli): > 32 µg/mL
remaining at 2 h, 1 µM [4]: 23%
MIC (Staphylococcus aureus): > 32 µg/mL
MIC (Acinetobacter baumannii): > 32 µg/mL
MIC (Enterococcus faecium): > 32 µg/mL
Tmax [5]: 0.5 h
remaining at 0.5 h, 1 µM [7]: 56.8%
IC50 (HepG2): > 100 µM
MIC [1]: 0.25 µg/mL (≈ 0.51 µM)
%AUCextra [8]: 0.6%
MIC (Klebsiella pneumoniae): > 32 µg/mL
AUC(0-inf) [10]: 11900 ng·h/mL
remaining at 2 h, 1 µM [12]: 76.5%
Cmax [13]: 7440 ng/mL
AUC(0-t) [14]: 11900 ng·h/mL
remaining at 1 h, 1 µM [15]: 40.1%
remaining at 0.25 h, 1 µM [16]: 74.1%
MIC (Pseudomonas aeruginosa): > 32 µg/mL

Fc1cc(F)cc(-c2nc(CN3CCN(c4ccnc5cc(Cl)ccc45)CC3)no2)c1
MIC [1]: > 128 µg/mL
